# Key:
# [1] = system: adalimumab producing cell line 1; assay: Cell growth, viability and titer, bioreactor culture, cell line 1; format: cell-based; conditions: Example 2; 2DDG 0.25 g/l; versus control
# Protocol: For the bioreactor (3 L Applikon) experiments (Examples 1, 2 and 3), 3 L, bioreactors (1.5 L working volume) were initiated at 35° C. (cell line 1) and 36° C. (cell line 2), 30% DO, 200 rpm, pH of 7.1. In some of the conditions, pH was ramped down to 6.8 in three days and kept at pH 6.8 thereafter. The inclusion of pH ramp for a particular condition is indicated by the final pH in the experimental design. If the final pH is 7.1, then it indicates no pH ramp was performed, whereas if the final pH is 6.8, a pH ramp was performed on day 3 from pH 7.1 to pH 6.8. In some of the conditions, a temperature shift was performed. When temperature shift was performed, the temperature was lowered to 33° C. Again, the conditions where such a temperature shift was performed can be identified from the final temperature in the experimental design. Cultures were run in extended batch mode with the addition of a desired amount of 40% glucose stock solution was fed based on glucose measurements. […]
# The cells were grown to maximum viable cell densities (VCD) in the range of 10-14×10^6 cells/ml for the different conditions tested. […] Samples were subsequently analyzed using Poros A for titer and WCX-10 post protein A purification. Based on the WCX-10 chromatograms, the percentages of total peak(s) area corresponding to the acidic species were quantified. […]
# [2] = system: adalimumab producing cell line 1; assay: WCX-10 quantification of acidic species of adalimumab, bioreactor culture, cell line 1; format: cell-based
# Protocol: Two adalimumab producing cell lines were employed in the studies covered here. Upon thaw, cells were cultured in their respective growth media in a combination of vented non-baffled shake flasks (Corning) on a shaker platform at 110 RPM (cell line 1) and 140 RPM (cell line 2) and 10 L or 20 L wave bags (GE). Cultures were propagated in a 35° C., 5% CO2 incubator for cell line 1 and 36° C., 5% CO2 incubator for cell line 2 to obtain the required number of cells to be able to initiate production stage cultures. For the bioreactor (3 L Applikon) experiments (Examples 1, 2 and 3), 3 L, bioreactors (1.5 L working volume) were initiated at 35° C. (cell line 1) and 36° C. (cell line 2), 30% DO, 200 rpm, pH of 7.1. In some of the conditions, pH was ramped down to 6.8 in three days and kept at pH 6.8 thereafter. The inclusion of pH ramp for a particular condition is indicated by the final pH in the experimental design. If the final pH is 7.1, then it indicates no pH ramp was performed, whereas if the final pH is 6.8, a pH ramp was performed on day 3 from pH 7.1 to pH 6.8. In some of the conditions, a temperature shift was performed. When temperature shift was performed, the temperature was lowered to 33° C. Again, the conditions where such a temperature shift was performed can be identified from the final temperature in the experimental design. Cultures were run in extended batch mode with the addition of a desired amount of 40% glucose stock solution was fed based on glucose measurements. The harvest procedure of the reactors involved centrifugation of the culture sample at 3,000 RPM for 30 min and storage of supernatant in PETG bottles at −80° C. before submission for protein A purification, WCX-10 analysis and Lys-C peptide mapping. This method is employed towards the quantification of the acidic species and other charge variants present in cell culture harvest samples. Cation exchange chromatography was performed on a Dionex ProPac WCX-10, Analytical column (Dionex, Calif.). The mobile phases used were 10 mM Sodium Phosphate dibasic pH 7.5 (Mobile phase A) and 10 mM Sodium Phosphate dibasic, 500 mM Sodium Chloride pH 5.5 (Mobile phase B). A binary gradient (94% A, 6% B: […]; 84% A, 16% B: 20-22 min; 0% A, 100% B: 22-28 min; 94% A, 6% B: 28-34 min) was used with detection at 280 nm. Quantitation is based on the relative area percent of detected peaks. The peaks that elute at relative residence time earlier than the main peak corresponding to the drug product are together represented as the acidic peaks. Cell line 1 was cultured in IVGN production medium supplemented with or without 2DDG (0.25 g/l). Prior to this experiment, a study was performed in a shake flask culture to evaluate the dose effect of 2DDG on this cell line and optimize a dose range of reactor evaluation (data not shown). In this experiment, the cultures were performed in 3 L bioreactors in batch format (pH 7.1, DO—30%, 200 rpm) with only glucose feed as described in Example 1. Temperature shift was implemented in some tests (35° C. to 33° C. on day 5 of culture). Both 2DDG supplementation and temperature shift were employed as methods to reduce glucose consumption of the cells in culture. The hypothesis was that the reduction in glucose consumption will translate into reduced synthesis of MGO in cell culture. As a result, a reduction in MGO modification and acidic species of the protein would be achieved. In this experiment, the cultures were performed in 3 L bioreactors in batch format (DO—30%, 200 rpm) with only glucose feed as described in the materials and methods. The control condition was run at a constant temperature of 35° C., constant pH of 7.1 without any supplementation of 2DDG or arginine (condition #10). […]
smiles,measurement,setting,value
"O=CC[C@@H](O)[C@H](O)[C@H](O)CO [Test 2DDG, 2-Deoxy-D-Glucose]",cell growth and viability profile,[1],slight increase
same,percentage of acidic species,"[2]; Example 2, 2DDG 0.25 g/l with temperature shift 35° C. to 33° C. on day 5, Day 10 harvest, control 26.6%",17.4%
same,percentage of acidic species,"[2]; Example 2, 2DDG 0.25 g/l, no temperature shift, Day 10 harvest, control 26.6%",22.9%
same,percentage of acidic species,"[2]; Example 3, 2DDG 0.25 g/l alone, day 11 harvest, control 68.4%",48.5%
same,percentage of acidic species,"[2]; Example 3, 2DDG 0.25 g/l and temperature shift, day 11 harvest, control 68.4%",22.7%
same,percentage of acidic species,"[2]; Example 3, 2DDG, temperature shift and arginine supplementation (4 g/l), day 11 harvest",12.6%
same,percentage of acidic species,"[2]; Example 3, 2DDG, temperature shift and lower pH (6.8), day 11 harvest",15.2%
same,percentage of acidic species,"[2]; Example 3, 2DDG, temperature shift, lower pH and arginine supplementation, day 11 harvest",12.0%
